# Read-outs that look alike come from different tables or passages of the source.
# B1: chemerin: a peptide agonist for ChemR23 (R & D Systems) (protein, UniProt Q99969 21-157, looked up)
# Retinoic acid receptor …: ELTEAQRRGLQVALEEFHKHPPVQWAFQETSVESAVDTPFPAGIFVRLEFKLQQTSCRKRDWKKPECKVRPNGRKRKCLACIKLGSEDKVLGRLVHCPIETQVLREAEEHQETQCLRVQRAGEDPHSFYFPGQFAFS
# modifications: Chemerin
# Assays:
# [1] = system: formalin-induced inflammatory pain; assay: Formalin-induced spontaneous inflammatory pain (licking/flinching duration); type: in vivo, mice; settings: for formalin-induced pain behavior, 2nd phase: preemptive intrathecal injection, RvE1 0.3 and 1.0 ng, morphine 10 to 500 ng, NS-398 0.1, 1, and 10 μg, chemerin 0.45 to 100 ng; for reversal of RvE1's antinociceptive action, formalin 2nd phase: intrathecal, pertussis toxin 0.2 μg, naloxone 2 μg, ChemR23 siRNA 3 μg daily for 3 days before formalin
# Method: (§1) Animals and pain models. Adult CD1 mice (male, 25-32 g) were used for most experiments. Knockout mice were used lacking TNFR1/II (Tnfrsf1a/1b^−/−) and TRPV1 (Trpv1^−/−) and C57BL/6 wild-type control mice, all from Jackson, for some experiments. All animal procedures performed in this study were approved by the Harvard Medical Area Standing Committee on Animals. 20 μl of diluted formalin (5%), carrageenan (CRG, 1%), or complete Freund's adjuvant (CFA) were injected into the plantar surface of a hindpaw to produce acute, persistent, or chronic inflammatory pain, respectively. Postoperative pain was also produced through hindpaw incision^36 and neuropathic pain by ligation of the spinal nerve^37.
# (§2) Reagents and administration. RvE1 and RvD1 were suspended in 1% or 10% ethanol as vehicle for investigating acute (<1 h) and persistent (1-6 h) effects of resolvins on inflammatory pain. The reagents (10 μl) were delivered to the cerebral spinal fluid via intrathecal injection made by a spinal cord puncture between the L5 and L6 level with a 30G needle^38.
# (§3) Behavioral analysis. Mice were habituated in the testing environment for two days and performed behavioral testing in a blinded manner. Formalin-evoked spontaneous inflammatory pain was assessed by measuring duration (seconds) animals spent on licking/flinching the affected paws every 5 min for 45 min. Capsaicin-induced spontaneous pain was aslo assessed for 10 min. For testing mechanical sensitivity, mice were put in boxes on an elevated metal mesh floor and stimulated hindpaw with a series of von Frey hairs with logarithmically incrementing stiffness (0.02-2.56 grams, Stoelting), presented perpendicular to the plantar surface. It was determined the 50% paw withdrawal threshold using Dixon's up-down method^40. For testing heat sensitivity, mice were placed in plastic boxes and tested heat sensitivity using Hargreaves radiant heat apparatus (IITC Life Science Inc.). The basal paw withdrawal latency was adjusted to 9-12 seconds and set a cut-off of 20 seconds to prevent tissue damage. The percent maximal possible antinociceptive effect (% M.P.E) was calculated using the equation % M.P.E.=[(PL−BL2)/(BL1−BL2)]×100. BL1, baseline latency before inflammation; BL2, baseline latency after inflammation but before drug injection; PL, latency post drug injection.
# (§4) Intrathecal injection. To avoid systemic effects of drugs and target spinal mechanisms, drugs were delivered into cerebral spinal fluid (CSF) space around lumbosacral spinal cord via intrathecal (i.t.) administration. Spinal cord puncture was made with a 30G needle between the L5 and L6 level to deliver the reagents (10 μl) to the cerebral spinal fluid (Hylden and Wilcox, 1980)^5. […] In addition to spinal cord cells, intrathecal drug administration also affects DRG cells^6,7.
# Intrathecal injection: DHA and EPA (Cayman Chemical, 10 μg, prepared in 1% ethanol), COX-2 inhibitor NS-398 (Sigma, 0.1, 1, and 10 μg, prepared in 1% ethanol in FIG. 1a-c or in 10% ethanol in FIG. 2c), morphine (Sigma, 10 to 500 ng, prepared in 1% ethanol in FIG. 1a-c), naloxone (Sigma, 2 μg, prepared in 1% ethanol), pertussis toxin (Tocris Bioscience, 0.2 μg, prepared in saline), chemerin (R & D Systems, 0.45 to 100 ng, prepared in 1% ethanol), TNF-α (R & D Systems, 20 ng, prepared in saline), and capsaicin (Sigma, 0.5 μg in 10 μl, prepared in 1% DMSO) were delivered. To examine whether pretreatment of RvE1 attenuated TNF-α-induced persistent hyperalgesia at 1, 3, and 24 h, RvE1 and TNF-α were mixed and injected at the same time (FIG. 3c). To examine whether pretreatment of RvE1 attenuates capsaicin-induced acute spontaneous pain, RvE1 and capsaicin were mixed and injected at the same time (FIG. 3f).
# lamina II neurons = assay: Patch clamp recording of sEPSCs in lamina II neurons of spinal cord slices; type: cell-based, mice
# Method: (§5) Spinal cord slice preparation. As previously reported^39, a portion of the lumbar spinal cord (L4-L5) was removed from young mice (3-4 week old) under urethane anesthesia (1.5-2.0 g/kg, i.p.) and transverse spinal cord slices were cut (600 μm) on a vibrating microslicer. The slices were perfused with Kreb's solution (8 ml/min) for >2 h prior to experiments. Some slices were stimulated with TNF-α (10 ng/ml, 5 min), the slices were fixed with 4% paraformaldehyde for 1 h, and processed pERK immunohistochemistry using thin sections (15 μm)^13.
# (§6) Patch clamp recordings in spinal slices. Whole cell patch-clamp recordings were performed in lamina II neurons in voltage clamp mode^39. After establishing the whole-cell configuration, neurons were held at the holding potentials of −70 mV for recording spontaneous excitatory postsynaptic current (sEPSC). NMDA-induced currents were recorded by bath application of NMDA (50 μM, Sigma) at the holding potential of −50 mV. Membrane currents were amplified with an Axopatch 200A amplifier (Axon Instruments) in voltage-clamp mode. pCLAMP 6 was used and Mini Analysis (Synaptosoft Inc.) software to store and analyze the data. Those cells showing >5% changes from the baseline levels were reagrded as responding ones^24.
# (§7) Resolvins were also used for intraplantar injection. RvD1 or RvE1 was injected into the plantar surface of a hindapaw [20 ng, 20 μl , in 1% ethanol (Supplementary FIG. 5a, 5b) or in 10% ethanol (FIG. 2e, Supplementary FIG. 1d)]. DRG cultures were incubated with RvE1 (10 ng/ml, 0.1% ethanol in culture medium) and perfused spinal cord slices with RvE1 (1 ng/ml, in 0.01% ethanol and Kreb's solution).
# (§8) Perfusion of spinal cord slices: Spinal cord slices were incubated with chemerin (100 ng/ml, in Kreb's solution), TNF-α (10 ng/ml, in Kreb's solution), capsaicin (100 nM, in 0.01% DMSO and Kreb's solution), TRPV1 antagonist capsazepine (Sigma, 10 μM, in 0.01% DMSO and Kreb's solution), pertussix toxin (0.5 μg/ml, in Kreb's solution), and MEK inhibitor PD98059 and U0126 (CalBiochem, 1 μM, in 0.01% DMSO and Kreb's solution). For pertussix toxin treatment, spinal cord slices were incubated with the toxin for 3 h before stimulation.
# [2] = system: glutamate NMDA receptors (NMDARs); assay: NMDA-induced currents in dorsal horn (lamina II) neurons of spinal cord slices; type: cell-based, mice; settings: NMDA 50 μM; TNF-α 10 ng/ml; PD98059 1 μM, U0126 1 μM, capsazepine 10 μM
# Method: as §5, §6, §7, §8
# [3] = system: SNL-induced neuropathic pain; assay: Neuropathic pain model induced by spinal nerve ligation (SNL); type: in vivo, mice; settings: for SNL-induced heat hyperalgesia: 10 ng, i.t., one day after spinal nerve ligation
# Method: as §1, §3
# [4] = system: complete Freund's adjuvant (CFA)-evoked heat hyperalgesia; assay: CFA-evoked heat hyperalgesia (paw withdrawal latency, Hargreaves); type: in vivo, mice; settings: intrathecal; for effective doses relative to that of RvE1: CFA heat hyperalgesia
# Method: as §1, §2, §3, §4
# The anti-hyperalgesic efficacy of RvE1 prepared in 1% and 10% ethanol was compared on post-CFA day 3.
# inflammatory pain = assay: Inflammatory pain models induced by formalin or CFA (summary statements); type: in vivo, mouse
# Method: as §1, §3
# [5] = capsaicin 100 nM, RvE1 1 ng/ml, chemerin 100 ng/ml, PD98059 and U0126 1 μM
molecule,measurement,setting,value
CN1CC[C@]23c4c5ccc(O)c4O[C@H]2[C@@H](O)C=C[C@H]3[C@H]1C5 [morphine],"formalin-induced pain behavior, 2nd phase",[1],Reduction
"COc1cc(CNC(=O)CCCC/C=C/C(C)C)ccc1O [capsaicin, reference compound]",increase in sEPSC frequency,lamina II neurons; capsaicin 100 nM,2 fold
"Oc1cc2c(cc1O)CN(C(=S)NCCc1ccc(Cl)cc1)CCC2 [capsazepine, reference compound]",TNF-α-induced potentiation of NMDA currents (NMDAR activation),[2],but not capsazepine blocked
same,TNF-α-evoked sEPSC frequency increase,"lamina II neurons; TNF-α 10 ng/ml, RvE1 1 ng/ml, capsazepine 10 μM",reduced
"O=C(O)CCC[C@H](O)\C=C/C=C/C=C/[C@H](O)C/C=C\C=C\[C@@H](O)COc1ccc(F)cc1 [19-pf-RvE1, 19-(p-fluorophenoxy)-RvE1]",SNL-induced heat hyperalgesia,[3],more persistent reduction in heat hyperalgesia
same,SNL-induced heat hyperalgesia,[3]; listed as modified RvE1,reduces SNL-induced heat hyperalgesia
same,time for which hyperalgesia was reduced,[4]; post-CFA day 3,6 h
CS(=O)(=O)Nc1ccc([N+](=O)[O-])cc1OC1CCCCC1 [NS-398],"formalin-induced pain behavior, 2nd phase",[1],Reduction
"N#CC(=C(/N)Sc1ccccc1N)/C(C#N)=C(\N)Sc1ccccc1N [U0126, reference compound]",TNF-α-induced potentiation of NMDA currents (NMDAR activation),[2],blocked
same,capsaicin-evoked sEPSC frequency increase,lamina II neurons,blocked
"COc1cccc(-c2cc(=O)c3ccccc3o2)c1N [PD98059, reference compound]",TNF-α-induced potentiation of NMDA currents (NMDAR activation),[2],blocked
same,capsaicin-evoked sEPSC frequency increase,lamina II neurons; [5],blocked
"CC/C=C\C/C=C\C/C=C\C/C=C\C/C=C\C/C=C\CCC(=O)O [DHA, docosahexaenoic acid, reference compound]",effective doses relative to that of RvE1,[4],"10,000 times higher"
"CC/C=C\C/C=C\C/C=C\C/C=C\C/C=C\CCCC(=O)O [EPA, eicosapentaenoic acid, reference compound]",effective doses relative to that of RvE1,[4],"10,000 times higher"
CC/C=C\C[C@H](O)\C=C/C=C/C=C/[C@H](O)C/C=C\C/C=C\CCC(=O)O [PD1],nerve injury-induced hyperalgesia,[3]; neuropathic pain model induced by spinal nerve ligation,potently attenuate
same,pain-like behaviors,inflammatory pain,potently inhibit
pertussis toxin,"reversal of RvE1's antinociceptive action, formalin 2nd phase",[1],abrogated
"CCC(=O)/C=C/C=C\C[C@@H](O)/C=C/C=C/C=C\[C@@H](O)CCCC(=O)O [18-oxo-RvE1, reference compound]",CFA-evoked heat hyperalgesia,"[4]; post-CFA day 3, DHA and EPA 10 μg",essentially inactive
C=CCN1CC[C@]23c4c5ccc(O)c4O[C@H]2C(=O)CC[C@@]3(O)[C@H]1C5 [naloxone],"reversal of morphine's antinociceptive effect, formalin 2nd phase",[1]; intrathecal naloxone 2 μg,reversed
same,"reversal of RvE1's antinociceptive action, formalin 2nd phase",[1],not RvE1's effect
B1,"formalin-induced pain behavior, 2nd phase",[1],dose-dependently attenuated
same,capsaicin-evoked sEPSC frequency increase,lamina II neurons; [5],abolished

# — patent US20120245229A1, “METHOD FOR TREATING NEUROPATHIC PAIN” (priority 2009, published 2012)
